# From US20230416785A1, “NUCLEASE AND APPLICATION THEREOF” (CRISP-HR Therapeutics, Inc., priority 2020, published 2023)
# “Also recorded” adds a separate entry of the source.
# What was measured:
# HBB amplicon = assay: In-vitro exonuclease assay with purified proteins; format: biochemical, human; details: 30 nM protein, 3 nM HBB amplicon, 37° C., 60 minutes
# Method: Reactions were then electrophoresed and visualized on an agarose gel. FIG. 5C illustrates quantification of exonuclease activity. Quantification of exonuclease activity assayed in FIG. 5B. 3 replicates were performed for each reaction and were quantified via FIJI (ImageJ) and then normalized to control amplicon levels.
# Reactions were then electrophoresed and visualized on an agarose gel.
# DNA was isolated from wildtype K562 cells, and amplified using standard Taq DNA polymerase and HBB-out-F (5′-[…]-3′ (SEQ ID NO: 125)) and HBB-out-R (5′-[…]-3′ (SEQ ID NO: 126)), Tm=56 for 35 cycles, and purified using the Qiagen PCR cleanup kit. […] The samples were then electrophoresed on a standard 1% TAE agarose gel stained with gel green.
# A549 cells = assay: Cellular toxicity / viability of transfected A549 cells (resazurin assay); format: cell-based
# Method: A549 cells were chosen as they are both facile to grow and transfect, cost effective in terms of media and other reagents, and importantly have retained a functional p53 gene.
# Cells were then allowed to recover for one additional day, after which viability was cells were incubated with resazurin (Millipore Sigma) for 4 hours, after which fluorescence was quantified by a plate reader (Perkin Elmer).
# Unless otherwise noted, adherent cells (A549 or H1299) were seeded in 96 well plates and grown in either 50/50 F-12/DMEM or RPMI-1640 respectively, supplemented with 5% FBS and grown to roughly 70% confluency. Cells were then transfected with either Cal-Phos as described in Chen 2012 or Lipofectamine 3000 (Thermofisher). Fresh media was exchanged the next day and cellular viability was quantified on day 2.
# (§1) 20 μL of 0.15 mg/mL Resazurin solution was added to cells either plated in 96 well plates for all cell lines, which were then incubated for ˜4 hours at 37° C. Cellular toxicity was quantified using a Tecan SpectraFlour Plus plate reader (Tecan) using a 535/595 filter set. Raw data was then normalized to the mean of the untransfected controls and plotted as described.
# as §1, with “described. […] Stats: All two-sided students T-test with unequal variance.” for “described.”
# [1] = test system: intergenic region on Chromosome 6 (Int-G2, Int-G3); assay: PuroRT HDR quantification in K562 cells (puromycin survival); format: cell-based, human
# Excerpt: The target integration site is approximately ˜1 kb to the 3′ end of the human H2B gene on Chromosome 6, an intergenic region which has no predicted genes or long non-coding RNA.
# Next, to assay HDR rates, K562 cells were again used instead of A549 cells, as the lack of a functional p53 gene should help to deconvolute HDR rates from cellular toxicity effects. […] After two days, DNA was extracted from ˜ 1/10 of surviving cells and used for analysis of Puro RT genomic integration. The next day, 0.5 mg/mL puromycin was added, and after three days cellular survival was quantified via resazurin assay as described previously.
# After two days, 1/10 of cells were taken for DNA extraction, while the rest were treated with 0.5 μg/mL puromycin. Cells were grown for a further 3 days then viability quantified via Resazurin assay.
# CHO-SHS-1.2 = assay: CHO cell Cas9-HR8 stable knock-in, anti-Cas9 western blot; format: cell-based; details: CHO cells; CHO-SHS-1.2-G1; Puromycin 10 days, then 12 days without
# Method: CHO-Freestyle Cells (Invitrogen) were grown to ˜70% confluency, after which were transfected using the Neon (Thermo) transfection system and 250 ng of Cas9-HR8, 250 ng of either CHO-SHS-1.2-G1, and 50 ng CHO-SHS-1.2-pCAG-Cas9-HR8-IRES-PuroR RT. Cells were allowed to recover for two days, then treated with […] Puromycin for 10 days, after which Puromycin selection was removed. Cells were grown for an additional 12 days, after which cells split and half were frozen, while the other half was treated with RIPA buffer (Santa-Cruz) to extract protein, with non-transfected control CHO cells protein also extracted via RIPA buffer. Lysate was normalized and 7.5 ug total protein was loaded onto a 4-12% Bis-Tris Acrylamide gel (Invitrogen), and transferred to nitrocellulose using BioRad blotting and transfer system (BioRad). Membrane was washed 3× with 1×PBST (BioRad), blocked for 10 minutes using EveryBlot blocking solution (BioRad), and incubated for 1 hr at RT with a 1:1000 dilution of mouse anti-Cas9 (SantaCruz). Membrane was washed 5× for 5 minutes each in PBST, then incubated for an hour with 1:1000 rabbit anti-mouse-HRP secondary antibody for 1 hr at RT. Membrane was then washed 5× for 5 minutes each in PBST, after which a 1× NC/DAB (ThermoFisher) solution was used to visualize bands. FIG. 22A illustrates an exemplary diagram showing CHO cell Cas9-HR8 stable knock-in protocol. […]
# AAVS1 = assay: RLucRT luminescence HDR assay in H1299 cells; format: cell-based, human; details: for luminescence relative to Cas9: RLucRT (2.0 kb)
# Method: FIG. 4B illustrates experimental procedures for RLucRT experiments. Diagram showing experimental procedure for the dsDNA RLucRT HDR assay in H1299 cells. […] After two days, cellular viability is quantified via Resazurin assay, then cells are washed with PBS then lysed. Lysate is then incubated with Coelenterazine, and luminescence immediately quantified via plate reader.
# For these experiments, the well characterized safe harbor site AAVS1 was used combined with previously established and functional guide RNAs AAVS1 T1 and T2, which will be referred to as G1 and G2 respectively hereafter. […] As with the puromycin resistance cassette, PCR amplified dsDNA was used as opposed to plasmids to avoid confounding results when quantifying HDR rates, and to avoid extra integration of plasmid specific sequences in the genome.
# Next the viability of transfected cells was quantified via resazurin after two days, then cells were washed with PBS, then lysed and luminescence quantified via plate reader (FIG. 4B). […] Next Luminescence was quantified via the Renilla-Glo Luciferase Assay System (Promega) using a 96 well plate reader with luminescence capabilities (Tecan). After data collection, raw luminescence was background subtracted from non-transfected control cells, corrected for cellular viability, and plotted in FIG. 4D.
# After two days, cellular viability was quantified via Resazurin, then washed with PBS and lysed with 25 μL of cell lysis buffer, and luciferase activity was quantified via Renilla Luciferase Assay (Promega) and using a Tecan Infinite Mplex plate reader.
# Beta-Catenin1 = assay: Beta-Catenin1:mCherry HDR in H1299 cells; format: cell-based, human
# Method: After three days, media was replaced with HBSS (to reduce background for imaging) imaged using an EVOS M5000 imaging system. Imaging was performed by randomly finding and focusing on at least ten different sections per well using a 20× magnification lens, after which both brightfield and RFP images were acquired. Imaged were quantified by hand, using control images as the basis for RFP/mCherry background fluorescence.
substance,measurement,setting,value
Cas9-HR 8: hExo1(1-352)-Cas9 fusion of FIG. 1A; E. coli codon optimized vectors SEQ ID NO: 68 and 69,exonuclease activity (reduction of full length HBB amplicon),HBB amplicon,significant reduction in the full length HBB amplicon; also recorded: significant exonuclease activity
same,cellular viability relative to Cas9,"A549 cells; Cadherin1 G1 or G2, Day 2 post transfection",significant increases in cellular viability
same,cellular toxicity compared to Cas9,"A549 cells; H2B-G4 guide, lipofectamine 3000",significant reduction in cellular toxicity
same,cellular toxicity,"A549 cells; Int-G2 and Int-G3, CalPhos",dramatic reduction in cellular toxicity
same,cellular viability relative to Cas9,"A549 cells; SHS-231 G1, G2 or G3, Day 2 post transfection",significant increases in cellular viability
same,PCR of genomic integration of Puro RT at 5′ and 3′ ends,[1],successful integration of the repair template
same,"stable knock-in of Cas9-HR8 repair template (over 8 kb), anti-Cas9 western blot",CHO-SHS-1.2,stably integrated Cas9-HR8
same,nested junction PCR of RLucRT integration (5′ and 3′),AAVS1; AAVS1-G1,Strong specific amplification
same,luminescence relative to Cas9,AAVS1; AAVS1 G1,~2.5 fold
same,luminescence relative to Cas9,AAVS1; AAVS1 G2,~2 fold
same,"luminescence, AAVS1-G1 compared with AAVS1-G2",AAVS1; background subtracted,significantly higher luminescence
same,increase in HDR rates compared to Cas9 (Cas9 normalized luminescence),AAVS1; both G1 and G2,2-3 ×
same,fold change in mCherry+ cells relative to Cas9,"Beta-Catenin1; G2, day 3",~2.5 fold
same,fold change in mCherry+ cells relative to Cas9,"Beta-Catenin1; G3, day 3",~2.5 fold
same,fold increase in mCherry+ cells relative to Cas9,"Beta-Catenin1; all guide polynucleotides (G1, G2, G3), day 3",> 2 fold
same,mCherry+ cells compared to Cas9,"Beta-Catenin1; all three gRNAs, day 3",significant increases in mCherry+ cells
same,positive cell count compared to Beta-Catenin1:mCherry alone,"Beta-Catenin1; average mCherry+ cells per image section, day 3",significant increases in positive cell count
